Test results taken from patent US9113629B2, “4-amino-6-(4-substituted-phenyl)-picolinates and 6-amino-2-(4-substituted-phenyl)-pyrimidine-4-carboxylates and their use as herbicides” (DOW AGROSCIENCES LLC, priority 2013, dated 2015).
Where two headings read alike, the source gives them in different places.

Tests used:
[1] = system: Key Broadleaf Weed and Crop Species; assay: Post-emergent Test II herbicidal activity (Table 5); assay type: in vivo; conditions: post-emergence, 336 h, 14 days after application; for pest or weed control at 70 g/ha: application rate 70 g ai/ha; for pest or weed control at 140 g/ha: application rate 140 g ai/ha
Procedure, shortened: (§1)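 Greenhouse-grown plants at first or second true leaf stage were sprayed post-emergence with compound in acetone/DMSO-based aqueous spray containing crop oil concentrate and surfactant, at 187 L/ha, highest rate plus ½× to 1/16× dilutions. After 14 d, injury was scored visually versus untreated plants, 0 (none) to 100% (complete kill).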

[2] = system: Key Grass and Sedge Weeds as well as Grass Crops; assay: Post-emergent Test II herbicidal activity (Table 6); assay type: in vivo; conditions: post-emergence, 336 h; for pest or weed control at 70 g/ha: 70 g ai/ha; for pest or weed control at 140 g/ha: 140 g ai/ha
Procedure, shortened: as §1

[3] = ABUTH: velvetleaf (Abutilon theophrasti), read-out: Visual Growth Reduction (%) 14 Days After Application, ABUTH
[4] = AMARE: redroot pigweed (Amaranthus retroflexus), read-out: Visual Growth Reduction (%) 14 Days After Application, AMARE
[5] = BRSNN: oilseed-rape, canola (Brassica napus), read-out: Visual Growth Reduction (%) 14 Days After Application, BRSNN
[6] = CHEAL: lambsquarters (Chenopodium album), read-out: Visual Growth Reduction (%) 14 Days After Application, CHEAL
[7] = EPHHL: wild poinsettia (Euphorbia heterophylla), read-out: Visual Growth Reduction (%) 14 Days After Application, EPHHL
[8] = HELAN: sunflower (Helianthus annuus), read-out: Visual Growth Reduction (%) 14 Days After Application, HELAN
[9] = VIOTR: wild pansy (Viola tricolor), read-out: Visual Growth Reduction (%) 14 Days After Application, VIOTR
[10] = CYPES: yellow nutsedge (Cyperus esculentus), read-out: Visual Growth Reduction (%) 14 Days After Application, CYPES
[11] = DIGSA: crabgrass (Digitaria sanguinalis), read-out: Visual Growth Reduction (%) 14 Days After Application, DIGSA
[12] = ECHCG: barnyardgrass (Echinochloa crus-galli), read-out: Visual Growth Reduction (%) 14 Days After Application, ECHCG
[13] = ORYSA: rice (Oryza sativa), crop, read-out: Visual Growth Reduction (%) 14 Days After Application, ORYSA
[14] = SETFA: giant foxtail (Setaria faberi), read-out: Visual Growth Reduction (%) 14 Days After Application, SETFA
[15] = SORVU: grain sorghum (Sorghum vulgare), read-out: Visual Growth Reduction (%) 14 Days After Application, SORVU
[16] = TRZSS (wheat, Triticum aestivum), crop, read-out: Visual Growth Reduction (%) 14 Days After Application, TRZSS
[17] = ZEAMX: maize, corn (Zea mays), crop, read-out: Visual Growth Reduction (%) 14 Days After Application, ZEAMX

Q: Which pest or weed control at 70 g/ha [1, 3] does the source give for `COC(=O)c1nc(-c2ccc(C(F)(F)F)c(F)c2)c(F)c(N)c1Cl` [Compound 165] here?
A: The pest or weed control at 70 g/ha was 85 to 94%.

Q: What about the pest or weed control at 140 g/ha [1, 3] of the same compound?
A: The pest or weed control at 140 g/ha was 95 to 100%.

Q: And the pest or weed control at 70 g/ha [1, 4]?
A: Its pest or weed control at 70 g/ha is 85 to 94%.

Q: And the pest or weed control at 140 g/ha [1, 4]?
A: Its pest or weed control at 140 g/ha is 85 to 94%.

Q: And the pest or weed control at 70 g/ha [1, 5]?
A: Its pest or weed control at 70 g/ha is 75 to 84%.

Q: What about the pest or weed control at 140 g/ha [1, 5] of the same compound?
A: Its pest or weed control at 140 g/ha is 85 to 94%.

Q: And the pest or weed control at 70 g/ha [1, 6]?
A: The pest or weed control at 70 g/ha was 95 to 100%.

Q: What about the pest or weed control at 140 g/ha [1, 6] of the same compound?
A: Its pest or weed control at 140 g/ha is 95 to 100%.

Q: What about the pest or weed control at 70 g/ha [1, 7] of the same compound?
A: Its pest or weed control at 70 g/ha is 95 to 100%.

Q: And the pest or weed control at 140 g/ha [1, 7]?
A: The pest or weed control at 140 g/ha was 95 to 100%.

Q: And the pest or weed control at 70 g/ha [1, 8]?
A: Its pest or weed control at 70 g/ha is 95 to 100%.

Q: What about the pest or weed control at 140 g/ha [1, 8] of the same compound?
A: The pest or weed control at 140 g/ha was 95 to 100%.

Q: And the pest or weed control at 70 g/ha [1, 9]?
A: The pest or weed control at 70 g/ha was 45 to 59%.

Q: And the pest or weed control at 140 g/ha [1, 9]?
A: Its pest or weed control at 140 g/ha is 95 to 100%.

Q: What about the melting point of the same compound?
A: The melting point was 133 to 135 °C.

Q: And the pest or weed control at 70 g/ha [2, 10]?
A: The pest or weed control at 70 g/ha was 95 to 100%.

Q: And the pest or weed control at 140 g/ha [2, 10]?
A: The pest or weed control at 140 g/ha was 95 to 100%.

Q: And the pest or weed control at 70 g/ha [2, 11]?
A: Its pest or weed control at 70 g/ha is 60 to 74%.

Q: What about the pest or weed control at 140 g/ha [2, 11] of the same compound?
A: Its pest or weed control at 140 g/ha is 60 to 74%.

Q: And the pest or weed control at 70 g/ha [2, 12]?
A: Its pest or weed control at 70 g/ha is 85 to 94%.

Q: What about the pest or weed control at 140 g/ha [2, 12] of the same compound?
A: The pest or weed control at 140 g/ha was 95 to 100%.

Q: And the pest or weed control at 70 g/ha [2, 13]?
A: The pest or weed control at 70 g/ha was 0 to 29%.

Q: What about the pest or weed control at 140 g/ha [2, 13] of the same compound?
A: Its pest or weed control at 140 g/ha is 0 to 29%.

Q: What about the pest or weed control at 70 g/ha [2, 14] of the same compound?
A: Its pest or weed control at 70 g/ha is 60 to 74%.

Q: And the pest or weed control at 140 g/ha [2, 14]?
A: The pest or weed control at 140 g/ha was 85 to 94%.

Q: And the pest or weed control at 70 g/ha [2, 15]?
A: Its pest or weed control at 70 g/ha is 60 to 74%.

Q: What about the pest or weed control at 140 g/ha [2, 15] of the same compound?
A: The pest or weed control at 140 g/ha was 60 to 74%.

Q: What about the pest or weed control at 70 g/ha [2, 16] of the same compound?
A: Its pest or weed control at 70 g/ha is 45 to 59%.

Q: What about the pest or weed control at 140 g/ha [2, 16] of the same compound?
A: The pest or weed control at 140 g/ha was 45 to 59%.

Q: What about the pest or weed control at 70 g/ha [2, 17] of the same compound?
A: Its pest or weed control at 70 g/ha is 75 to 84%.

Q: And the pest or weed control at 140 g/ha [2, 17]?
A: The pest or weed control at 140 g/ha was 95 to 100%.

Q: What does the source list for `Nc1c(F)c(-c2ccc(I)cc2F)nc(C(=O)O)c1Cl` [Compound 169]?
A: pest or weed control at 70 g/ha [1, 3]: 85 to 94%; pest or weed control at 140 g/ha [1, 3]: 85 to 94%; pest or weed control at 70 g/ha [1, 4]: 95 to 100%; pest or weed control at 140 g/ha [1, 4]: 95 to 100%; pest or weed control at 70 g/ha [1, 5]: 95 to 100%; pest or weed control at 140 g/ha [1, 5]: 95 to 100%; pest or weed control at 70 g/ha [1, 6]: 95 to 100%; pest or weed control at 140 g/ha [1, 6]: 95 to 100%; pest or weed control at 70 g/ha [1, 7]: 95 to 100%; pest or weed control at 140 g/ha [1, 7]: 95 to 100%; pest or weed control at 70 g/ha [1, 8]: 95 to 100%; pest or weed control at 140 g/ha [1, 8]: 95 to 100%; pest or weed control at 70 g/ha [1, 9]: 95 to 100%; pest or weed control at 140 g/ha [1, 9]: 95 to 100%; melting point: 152 to 155 °C; pest or weed control at 70 g/ha [2, 10]: 95 to 100%; pest or weed control at 140 g/ha [2, 10]: 95 to 100%; pest or weed control at 70 g/ha [2, 11]: 75 to 84%; pest or weed control at 140 g/ha [2, 11]: 85 to 94%; pest or weed control at 70 g/ha [2, 12]: 75 to 84%; pest or weed control at 140 g/ha [2, 12]: 75 to 84%; pest or weed control at 70 g/ha [2, 13]: 30 to 44%; pest or weed control at 140 g/ha [2, 13]: 30 to 44%; pest or weed control at 70 g/ha [2, 14]: 95 to 100%; pest or weed control at 140 g/ha [2, 14]: 95 to 100%; pest or weed control at 70 g/ha [2, 15]: 95 to 100%; pest or weed control at 140 g/ha [2, 15]: 95 to 100%; pest or weed control at 70 g/ha [2, 16]: 30 to 44%; pest or weed control at 140 g/ha [2, 16]: 45 to 59%; pest or weed control at 70 g/ha [2, 17]: 95 to 100%; pest or weed control at 140 g/ha [2, 17]: 95 to 100%
